Test results from patent US4501699A, “Maggiemycin, anhydromaggiemycin and processes for making” (Litton Bionetics, Inc., priority 1982, dated 1985).
≈ marks a conversion by molar mass, not a printed value.

Assays:
[1] = tested on: murine tumor cell lines KB, L1210 and P388; test: In vitro activity against one or all of the murine tumor cell lines KB, L1210 and P388; type: cell-based; details: for in vitro antitumor activity: one or all of KB, L1210 and P388
Description: (§1) A suitable solvent system was developed for the isolation of pure compounds of the invention by using the following systems in TLC. (A) chloroform (100%), (B) chloroform-ethyl acetate (80:20), (C) chloroform-acetone (80:20), (D) chloroform-methanol (80:20), (E) chloroform-acetic acid (95:5), (F) chloroform-acetone-acetic acid (90:8:2), (G) chloroform-hexane-acetic acid (50:50:5), (H) ether-petroleum ether (1:1), (I) chloroform-benzene methanol (6:3:1), (J) chloroform-benzene-methanol (7:3:2), (K) benzene-ethylacetate-methanol-formic acid-water (5:5:1.5:1:0.3), (L) chloroform-hexane-methanol (5:5:1) and (M) chloroform-heptane-methanol-acetic acid (40:40:18:2). In some of the solvents the order of elution changed. […] The crude compound was therefore chromatographed on a TLC grade silica gel column eluting with chloroform (100%), chlorform-acetic acid (99:1), chloroform-acetic acid (98:2), and chloroform-acetic acid (95:5). Based on the TLC, various fractions were combined to produce a red and purple eluate. These were separately concentrated and precipitated with chloroform-petroleum ether to yield red and purple powder. The red powder has been designated as maggiemycin (NSC-D344012) and the purple powder as anhydromaggiemycin. Both these compounds were active against Bacillus subtilis and Straphylococcus aureus. The in vitro antitumor activity of maggiemycin and anhydromaggiemycin against KB, P388 and L1210 murine cell lines is shown in Table 1.
The biological activity of these newly isolated anthracyclinones was compared with some of the known anthracyclinones. Each compounds was tested for in vitro activity against one or all of the murine tumor cell lines KB, L1210 and P388.

Straphylococcus aureus = test: Antibacterial activity against Straphylococcus aureus; type: cell-based
P388 = test: In vitro cytotoxicity (growth inhibition) against P388; type: cell-based, murine; details: Mus musculus, dose level at which 50% inhibition of growth in vitro is noted vs. untreated controls, read-out: ED50 P388
Description: as §1, with “The in vitro antitumor activity of maggiemycin and anhydromaggiemycin against KB, P388 and L1210 murine cell lines is shown in Table 1.” left out

Bacillus subtilis = test: Antibacterial activity against Bacillus subtilis; type: cell-based
KB = test: In vitro cytotoxicity (growth inhibition) against KB; type: cell-based, murine; details: Homo sapiens, dose level at which 50% inhibition of growth in vitro is noted vs. untreated controls, read-out: ED50 KB
Description: as §1, with “The in vitro antitumor activity of maggiemycin and anhydromaggiemycin against KB, P388 and L1210 murine cell lines is shown in Table 1.” left out

L1210 = test: In vitro cytotoxicity (growth inhibition) against L1210; type: cell-based, murine; details: Mus musculus, dose level at which 50% inhibition of growth in vitro is noted vs. untreated controls, read-out: ED50 L1210
Description: as §1, with “The in vitro antitumor activity of maggiemycin and anhydromaggiemycin against KB, P388 and L1210 murine cell lines is shown in Table 1.” left out

`COc1cccc2c1C(=O)c1c(O)c3c(c(O)c1C2=O)C[C@@](O)(C(C)=O)C[C@@H]3O` [daunorubicinone, Daunorubicinone, reference compound] was tested, and the “in vitro antitumor activity” value [1] was “inactive”.

`CC[C@@]1(O)CC(=O)c2c(O)c3c(c(O)c2[C@H]1C(=O)OC)C(=O)c1cccc(O)c1C3=O` [Maggiemycin] was tested, and the “activity against Straphylococcus aureus” value (Straphylococcus aureus) was “active”, the IC50 (P388) was 4.4 µg/mL (≈ 10.3 µM) and the “activity against Bacillus subtilis” value (Bacillus subtilis) was “active”. The IC50 (KB) was 2.7 µg/mL (≈ 6.33 µM), the “in vitro antitumor activity” value [1] was “active” and the IC50 (L1210) was 5.2 µg/mL (≈ 12.2 µM).

`CCc1cc(O)c2c(O)c3c(c(O)c2c1C(=O)OC)C(=O)c1cccc(O)c1C3=O` [Anhydromaggiemycin] was tested, and the “activity against Straphylococcus aureus” value (Straphylococcus aureus) was “active”, the IC50 (P388) was 0.62 µg/mL (≈ 1.52 µM) and the “activity against Bacillus subtilis” value (Bacillus subtilis) was “active”. The IC50 (KB) was 0.51 µg/mL (≈ 1.25 µM), the “in vitro antitumor activity” value [1] was “active” and the “in vitro antitumor activity, comparison of anhydromaggiemycin with maggiemycin” value ([1]; relative to maggiemycin) was “more active than maggiemycin”. The IC50 (L1210) was 0.26 µg/mL (≈ 0.637 µM).

With `CC[C@@]1(O)C[C@H](O)c2c(O)c3c(c(O)c2[C@H]1C(=O)OC)C(=O)c1cccc(O)c1C3=O` [ε-rhodomycinone, ε-Rhodomycinone, reference compound] the “in vitro antitumor activity” value [1] was “inactive”.

`COc1cccc2c1C(=O)c1c(O)c3c(c(O)c1C2=O)C[C@@](O)(C(C)=O)CC3=O` [7-oxidodaunorubicinone] was tested, and the “in vitro antitumor activity” value [1] was “active”.

`COc1cccc2c1C(=O)c1c(c(O)c3cc(C(C)=O)cc(O)c3c1O)C2=O` [anhydro-7-oxidodaunorubicinone, Anhydro-7-oxidodaunorubicinone] was tested, and the “in vitro antitumor activity” value [1] was “inactive”.
